For series [1], the target named is Human or Rat Histamine H3 Receptor (UniProt Q9Y5N1). Briefly: Binding assay for human or rat histamine H3 receptor ([3H] R-α-methylhistamine displacement). The following applies: [3H] R-α-methylhistamine 3.0 nM; rat brain frontal cortex or recombinant human receptor in CHO cells (source for table not stated). As for the experimental part:
Binding and Functional Assays for Human or Rat Histamine H3 Receptor
Compounds can be evaluated according to the following procedures.
• Receptor source: Rat brain frontal cortex or recombinant human cDNA expressed in CHO cells • Radioligand: [^3H] R-α-methylhistamine • Final ligand concentration—[3.0 nM] • Non-specific determinant: R-α-methylhistamine (100 μM) • Reference compound: R-α-methylhistamine • Positive control: R-α-methylhistamine Incubation Conditions:
Increasing concentrations of test compounds or standard were incubated with membrane receptors and radioligand in 5 mM MgCl2 and 50 mM TRIS-HCl (pH 7.4) for 60 minutes at room temperature. The reaction was terminated by rapid vacuum filtration onto the glass fiber filters. Radioactivity trapped onto the filters was determined and compared to the control values in order to ascertain any interactions of the test compound(s) with either cloned human or rat receptor binding site.

The nature of series [2]: Rodent pharmacokinetic study. It is filed as in vivo. To be noted: rat, whole blood, Wistar rats/Male; for AUC(0-t) / Cmax / Tmax / half-life: blood; for bioavailability: 3 mg/kg Per-Oral vs 1 mg/kg Intravenous. How it is done:
Male Wistar rats (230-280 grams) were used as experimental animals. Three to five animals were housed in each cage. One day prior to dosing day, male wistar rats (225-250 grams) were anesthetized with isoflurane for surgical placement of jugular vein catheter. Animals were kept fasted over night and maintained on a 12 hours light/dark cycle. Three rats were dosed with compounds of formula (I) orally (3 mg/Kg) and intravenously (1 mg/kg) in two separate set of animals (n=3 rats/group). At each time point, blood was collected by jugular vein. Blood was stored frozen at […] until analysis. The concentrations of the compounds of formula (I) in blood were determined using LC-MS/MS method. Schedule time points: Pre dose 0.08 (only for i.v.) 0.25, 0.5, 1, 2, 4, 6, 8, and 24 hours after dosing (n=3). The compounds of formula (I) were quantified in blood by validated LC-MS/MS method using acetonitrile precipitation technique. The compounds of formula (I) were quantified in the calibration range of 1-1000 ng/mL in blood. Study samples were analyzed using calibration samples in the batch and quality control samples spread across the batch. Pharmacokinetic parameters Cmax, Tmax, AUCt, T1/2 and Bioavailability were calculated by non-compartmental model using software Pheonix WinNonlin version 6.0.1.

Series [3] in a line: Rodent brain penetration study. Type of series: in vivo, Male Wistar rats. To be noted: male, Wistar, rat, brain homogenate / whole blood, po, 3 mg/kg, Wister rats/Male, Per-oral, 1 h post dose, read-out: Brain Penetration @ 1 h post dose (Cbrain/Cblood). How it is done:
Male Wistar rats (230-280 grams) were used as experimental animals. Three animals were housed in each cage. Animals were given water and food ad libitum throughout the experiment and maintained on a 12 hours light/dark cycle. Brain penetration was determined in discrete manner in rats. One day prior to dosing day, male wistar rats (225-250 grams) were acclimatized. After acclimatization, the rats were grouped according to the weight in each group, 3 animals were kept in individual cage and allowed free access to food and water. At each time point (05, 1, and 2 hrs) n=3 animals were used. The compounds of formula (I) were dissolved in water and administered orally at (free base) 3 mg/kg. Blood samples were removed via, cardiac puncture by using light ether anesthesia the animals were sacrificed to collect brain tissue. Brain samples were homogenized and stored frozen at −20° C. until analysis. The concentrations of the compounds of formula (I) in blood and brain were determined using LC-MS/MS method. The compounds of formula (I) were quantified in blood and brain homogenate by validated LC-MS/MS method using acetonitrile precipitation technique. The compounds of formula (I) were quantified in the calibration range of 1-1000 ng/mL in blood and brain homogenate. Study samples were analyzed using calibration samples in the batch and quality control samples spread across the batch. Extents of brain to blood ratios were calculated (Cbrain/Cblood).

The test system of a further series is Male Wister rats. Briefly: Object recognition task model. It is filed as in vivo. To be noted: 3 mg/kg, p.o. How it is done:
The cognition enhancing properties of compounds of this invention were estimated using a model of animal cognition: the object recognition task model.
Male Wister rats (230-280 grams) were used as experimental animals. Four animals were housed in each cage. Animals were kept on 20% food deprivation before one day and given water ad libitum throughout the experiment and maintained on a 12 hours light/dark cycle. Also the rats were habituated to individual arenas for 1 hour in the absence of any objects.
One group of 12 rats received vehicle (1 mL/Kg) orally and another set of animals received compound of the formula (I) either orally or i.p., before one hour of the familiar (T1) and choice trial (T2).
The experiment was carried out in a 50×50×50 cm open field made up of acrylic. In the familiarization phase, (T1), the rats were placed individually in the open field for 3 minutes, in which two identical objects (plastic bottles, 12.5 cm height×5.5 cm diameter) covered in yellow masking tape alone (a1 and a2) were positioned in two adjacent corners, 10 cm. from the walls. After 24 hours of the (T1) trial for long-term memory test, the same rats were placed in the same arena as they were placed in T1 trial. Choice phase (T2) rats were allowed to explore the open field for 3 minutes in presence of one familiar object (a3) and one novel object (b) (Amber color glass bottle, 12 cm high and 5 cm in diameter). Familiar objects presented similar textures, colors and sizes. During the T1 and T2 trial, explorations of each object (defined as sniffing, licking, chewing or having moving vibrissae whilst directing the nose towards the object at a distance of less than 1 cm) were recorded separately by stopwatch. Sitting on an object was not regarded as exploratory activity, however, it was rarely observed.
T1 is the total time spent exploring the familiar objects (a1+a2).
T2 is the total time spent exploring the familiar object and novel object (a3+b).
The object recognition test was performed as described by Ennaceur, A., Delacour, J., 1988, A new one-trial test for neurobiological studies of memory in rats—Behavioural data, Behav. Brain Res., 31, 47-59.

SMILES strings stand for the structures. Counter-ions that a name gives are not always drawn.

One may read the Ki as a dissociation constant, usually derived from enzyme kinetics or from competition with a known ligand. As to `CC(C)N1CCC(Oc2ccc(C=CC(=O)N3CCOCC3)cc2Br)CC1` [Example 19, 3-[3-Bromo-4-(1-isopropylpiperidin-4-yloxy)phenyl]-1-(morpholin-4-yl)prop-2-ene-1-one], in series [1], the Ki came to 17 nM.

Regarding `O=C(C=Cc1ccc(OC2CCN(CC3CC3)CC2)c(Br)c1)N1CCOCC1` [Example 22, 3-[3-Bromo-4-(1-cyclopropylmethylpiperidin-4-yloxy)phenyl]-1-(morpholin-4-yl)prop-2-ene-1-one], the Ki in series [1] worked out at 52.6 nM.

For `Cc1cc(OC2CCN(C(C)C)CC2)ccc1C=CC(=O)N1CCOCC1` [Example 9, 3-[4-(1-Isopropylpiperidin-4-yloxy)-2-methylphenyl]-1-(morpholin-4-yl)prop-2-ene-1-one L(+)-Tartarate salt], the Ki in series [1] turned out to be 13.1 nM.

For `CC(C)CN1CCC(Oc2ccc(C=CC(=O)N3CCOCC3)cc2)CC1` [Example 18, 3-[4-(1-Isobutylpiperidin-4-yloxy)phenyl]-1-(morpholin-4-yl)prop-2-ene-1-one], the Ki in series [1] was 32.4 nM.

Regarding `O=C(C=Cc1ccc(OC2CCN(C3CCC3)CC2)nc1)N1CCCCC1` [Example 4, 3-[2-(1-Cyclobutylpiperidin-4-yloxy)pyridin-5-yl]-1-(piperidin-1-yl)prop-2-ene-1-one L(+)-Tartarate salt], the Ki in series [1] was found to be 7.82 nM.

With `O=C(C=Cc1ccc(OC2CCN(C3CCC3)CC2)cc1)N1CCS(=O)(=O)CC1` [Example 3, 3-[4-(1-Cyclobutylpiperidin-4-yloxy)phenyl]-1-(1,1-dioxothiomorpholin-4-yl)prop-2-ene-1-one hydrochloride salt], in series [1], the Ki turned out to be 1.4 nM.

As usually defined, the AUC(0-t) is the area under the concentration-time curve up to a stated or last time point. Lower therefore signals less exposure. The Cmax is the highest concentration seen after dosing. What is called Tmax is the time at which the peak concentration occurs. Broadly, the half-life is the time in which the quantity being followed falls by half. A high value points to slow decline. Broadly, the bioavailability is the share of a dose that reaches the circulation, judged against a reference dose that is usually intravenous. Lower therefore signals little systemic uptake. Take `O=C(C=Cc1ccc(OC2CCN(C3CCC3)CC2)nc1)N1CCOCC1.O=C(O)C(O)C(O)C(=O)O` [Example 5, 3-[2-(1-Cyclobutylpiperidin-4-yloxy)pyridin-5-yl]-1-(morpholin-4-yl)prop-2-ene-1-one L(+)-Tartarate salt]: the Ki in series [1] is 7.9 nM. In addition, in series [2] (1 mg/kg, Intravenous), the AUC(0-t) came to 173 ± 13 ng·h/mL, the Cmax was 220 ± 10 ng/mL, the Tmax was found to be 4.8 min and the half-life was 36 ± 12 min. Moreover, the bioavailability in series [2] is 35 ± 5%. For the same compound, in series [2] (3 mg/kg, Per-Oral), the area under the curve AUC(0-t) was determined as 184 ± 25 ng·h/mL, the Cmax turned out to be 128 ± 6 ng/mL, the Tmax stood at 25.2 ± 8.4 min and the half-life is 66 ± 18 min. Moreover, the Kp at 1 h in series [3] was 0.92. In addition, the Inference result with Male Wister rats was “Active”. In the series on Male Wister rats (choice trial T2), the “Exploration time mean ± S.E.M, Familiar object” value was found to be 9.64 ± 2.22 s and the “Exploration time mean ± S.E.M, Novel object” value was 15.53 ± 2.36 s.

For `Cc1cc(OC2CCN(C3CCC3)CC2)ccc1C=CC(=O)N1CCOCC1` [Example 8, 3-[4-(1-Cyclobutylpiperidin-4-yloxy)-2-methylphenyl]-1-(morpholin-4-yl)prop-2-ene-1-one L(+)-Tartarate salt], the Ki in series [1] came to 6.34 nM.

For the compound `CC(C)N1CCC(Oc2ccc(C=CC(=O)N3CCOCC3)c(F)c2)CC1` [Example 6, 3-[2-Fluoro-4-(1-isopropylpiperidin-4-yloxy)phenyl]-1-(morpholin-4-yl)prop-2-ene-1-one L(+)-Tartarate salt], the Ki in series [1] was found to be 17.5 nM.

With `O=C(C=Cc1ccc(OC2CCN(C3CCC3)CC2)c(Br)c1)N1CCOCC1` [Example 20, 3-[3-Bromo-4-(1-cyclobutylpiperidin-4-yloxy)phenyl]-1-(morpholin-4-yl)prop-2-ene-1-one], the Ki in series [1] worked out at 5.97 nM.

Take `O=C(C=Cc1ccc(OC2CCN(C3CCC3)CC2)cc1)N1CCCCC1` [Example 2, 3-[4-(1-Cyclobutylpiperidin-4-yloxy)phenyl]-1-(piperidin-1-yl)prop-2-ene-1-one hydrochloride salt]: in series [1], the inhibition constant Ki came out at 1.82 nM.

Take `O=C(C=Cc1ccc(OC2CCN(C3CCC3)CC2)cc1Cl)N1CCOCC1` [Example 25, 3-[2-Chloro-4-(1-cyclobutylpiperidin-4-yloxy)phenyl]-1-(morpholin-4-yl)prop-2-ene-1-one]: the Ki in series [1] was found to be 29.7 nM.

For the compound `O=C(C=Cc1ccc(OC2CCN(C3CCC3)CC2)cc1)N1CCOCC1.O=C(O)C(O)C(O)C(=O)O` [Example 10, 3-[4-(1-Cyclobutylpiperidin-4-yloxy)phenyl]-1-(morpholin-4-yl)prop-2-ene-1-one L(+)-Tartarate salt], in series [1], the Ki came out at 3.43 nM. Moreover, in series [2] (1 mg/kg, Intravenous), the AUC(0-t) worked out at 222 ± 33 ng·h/mL, the peak level (Cmax) was 285 ± 46 ng/mL, the Tmax came to 4.8 min and the half-life was 48 ± 3 min. This compound registered a bioavailability in series [2] of 58 ± 6%. Moreover, in series [2] (3 mg/kg, Per-Oral), the area under the curve AUC(0-t) was 387 ± 38 ng·h/mL, the highest level (Cmax) was 290 ± 32 ng/mL, the Tmax came to 15 min and the half-life is 51 ± 8.4 min. In addition, the Kp at 1 h in series [3] stood at 1.36.

Turning to `O=C(C=Cc1ccc(OC2CCN(C3CCC3)CC2)cc1F)N1CCOCC1.O=C(O)C(O)C(O)C(=O)O` [Example 7, 3-[2-Fluoro-4-(1-cyclobutylpiperidin-4-yloxy)phenyl]-1-(morpholin-4-yl)prop-2-ene-1-one L(+)-Tartarate salt], the Ki in series [1] was 2.96 nM. Further, in series [2] (1 mg/kg, Intravenous), the AUC(0-t) turned out to be 167 ± 47 ng·h/mL, the Cmax was found to be 311 ± 110 ng/mL, the Tmax was found to be 4.8 min and the half-life was 36 ± 12 min. Moreover, the bioavailability in series [2] was 9 ± 5%. For the same compound, in series [2] (3 mg/kg, Per-Oral), the AUC(0-t) worked out at 49 ± 29 ng·h/mL, the Cmax was 57 ± 36 ng/mL, the Tmax turned out to be 15 min and the half-life was 54 ± 36 min. In series [3], the Kp at 1 h was 2.51.

With `COc1cc(C=CC(=O)N2CCOCC2)ccc1OC1CCN(C2CCC2)CC1` [Example 11, 3-[4-(1-Cyclobutylpiperidin-4-yloxy)-3-methoxyphenyl]-1-(morpholin-4-yl)prop-2-ene-1-one L(+)-Tartarate salt], in series [1], the Ki is 77.2 nM.

For the origin of these results see patent US9328092B2, “Acrylamide compounds as histamine H3 receptor ligands” (Suven Life Sciences Limited, priority 2012, dated 2016).
